Several values for one entry are separate records, joined by “and”; a condition that tells them apart may be missing. Equal entries are not always repeated. Inconclusive results and toxic doses are left out. Square brackets hold non-standard residues; d marks the D form. Peptide text beside a SMILES is read from it. ξ: configuration not given here. ξE = NC(CCC(=O)O)C(=O)O
System: P388 leukemia ip, CD2F1 mice, survival T/C
Assay: NCI In Vivo Anticancer Drug Screen. Data for tumor model P388 Leukemia (intraperitoneal) in CD2F1 (CDF1) mice
Conditions: endpoint: median survival time, higher = longer survival
Summary of the method: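 Mice carrying the transplanted tumor received test compound or vehicle. Survival was recorded in each group, and the value is the treated-group measurement divided by that of the vehicle-treated control group.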

[1] = dose: 50.0 mg/kg/injection, schedule: Q01DX005 (ip), vehicle: saline
[2] = dose: 100.0 mg/kg/injection, schedule: Q01DX005 (ip), vehicle: saline
[3] = dose: 50.0 mg/kg/injection, schedule: Q01DX005 (ip), vehicle: Klucel (hydroxypropylcellulose) (HPC)
[4] = dose: 100.0 mg/kg/injection, schedule: Q01DX005 (ip), vehicle: Klucel (hydroxypropylcellulose) (HPC)
[5] = dose: 200.0 mg/kg/injection, schedule: Q01DX005 (ip), vehicle: Klucel (hydroxypropylcellulose) (HPC)
[6] = dose: 50.0 mg/kg/injection, schedule: Q01DX009 (ip), vehicle: saline with Tween-80
[7] = dose: 100.0 mg/kg/injection, schedule: Q01DX009 (ip), vehicle: saline with Tween-80
[8] = dose: 50.0 mg/kg/injection, schedule: Q01DX005 (ip), vehicle: saline with Tween-80
[9] = dose: 100.0 mg/kg/injection, schedule: Q01DX005 (ip), vehicle: saline with Tween-80
[10] = dose: 200.0 mg/kg/injection, schedule: Q01DX005 (ip), vehicle: saline with Tween-80
[11] = dose: 100.0 mg/kg/injection, schedule: Q04DX003 (ip), vehicle: saline with Tween-80
[12] = dose: 200.0 mg/kg/injection, schedule: Q04DX003 (ip), vehicle: saline with Tween-80

With `CC1(C)Oc2c(C=O)c(O)cc3c2C2CC1CCC2(C)O3` (configuration not stated) the T/C (dose: 9.0 mg/kg/injection, schedule: Q01DX009 (ip), vehicle: saline with Tween-80) was 102 % of control, the T/C (dose: 18.0 mg/kg/injection, schedule: Q01DX009 (ip), vehicle: saline with Tween-80) was 96 % of control and the T/C (dose: 36.0 mg/kg/injection, schedule: Q01DX009 (ip), vehicle: saline with Tween-80) was 102 % of control.
In the case of `Clc1ccccc1N=Cc1ccc(C=Nc2ccccc2Cl)cc1`, the T/C (dose: 12.5 mg/kg/injection, schedule: Q01DX009 (ip), vehicle: Klucel (hydroxypropylcellulose) (HPC)) is reported as 99 % of control and the T/C (dose: 25.0 mg/kg/injection, schedule: Q01DX009 (ip), vehicle: Klucel (hydroxypropylcellulose) (HPC)) is reported as 92 % of control.
For `COc1cc(NCCN(CC(C)C)C2CCCC2)c2ncccc2c1`, the T/C (dose: 12.5 mg/kg/injection, schedule: Q01DX005 (ip), vehicle: saline) was 100 % of control and 106 % of control, the T/C (dose: 25.0 mg/kg/injection, schedule: Q01DX005 (ip), vehicle: saline) was 100 % of control and 114 % of control and the T/C [1] was 101 % of control and 103 % of control and 106 % of control. For the same compound, the T/C [2] was 121 % of control and 90 % of control and 96 % of control.
With `O=C(NC(c1ccccc1)c1cccs1)c1cccs1` (configuration not stated) the T/C [3] was 99 % of control, the T/C [4] was 99 % of control and the T/C [5] was 103 % of control.
`O=c1nc2[nH]c3c4cccc5cccc(c3nc2c(=O)[nH]1)c54` was tested, and the T/C (dose: 12.5 mg/kg/injection, schedule: Q01DX005 (ip), vehicle: Klucel (hydroxypropylcellulose) (HPC)) was 101 % of control and 108 % of control, the T/C (dose: 25.0 mg/kg/injection, schedule: Q01DX005 (ip), vehicle: Klucel (hydroxypropylcellulose) (HPC)) was 101 % of control and 98 % of control and the T/C [3] was 106 % of control and 110 % of control (2×). The T/C [4] was 108 % of control and 113 % of control and 124 % of control.
`CC(N)CC(N)CC(=O)O` (configuration not stated) was tested, and the T/C (dose: 60.0 mg/kg/injection, schedule: Q01DX005 (ip), vehicle: saline) was 100 % of control and 99 % of control, the T/C (dose: 120.0 mg/kg/injection, schedule: Q01DX005 (ip), vehicle: saline) was 102 % of control and 100 % of control and the T/C (dose: 240.0 mg/kg/injection, schedule: Q01DX005 (ip), vehicle: saline) was 90 % of control and 91 % of control.
For `C#CC(C)ON1C(=O)c2ccccc2C1=O` (configuration not stated), the T/C (dose: 100.0 mg/kg/injection, schedule: Q01DX001 (ip), vehicle: other) was 109 % of control, the T/C (dose: 200.0 mg/kg/injection, schedule: Q01DX001 (ip), vehicle: other) was 100 % of control and the T/C (dose: 400.0 mg/kg/injection, schedule: Q01DX001 (ip), vehicle: other) was 100 % of control.
For `CN(C)CCCN(c1ccccc1)c1ccccc1`, the T/C [3] was 98 % of control, the T/C [4] was 98 % of control and the T/C [5] was 98 % of control.
For `CS(=O)(=O)Nc1cccc2c1-c1ccccc1C2=O`, the T/C [3] was 96 % of control, the T/C [4] was 101 % of control and the T/C [5] was 88 % of control.
`Cc1ccc(NS(=O)(=O)c2ccccc2)nc1` was tested, and the T/C (dose: 25.0 mg/kg/injection, schedule: Q01DX009 (ip), vehicle: saline with Tween-80) was 110 % of control, the T/C [6] was 100 % of control and the T/C [7] was 100 % of control. The T/C (dose: 200.0 mg/kg/injection, schedule: Q01DX009 (ip), vehicle: saline with Tween-80) was 95 % of control and the T/C (dose: 400.0 mg/kg/injection, schedule: Q01DX009 (ip), vehicle: saline with Tween-80) was 105 % of control.
With `CC1CC(O)C(=O)C2(C)C1CC1OC(=O)CC3C(C)C(=O)C(O)C2C13` (configuration not stated) the T/C [8] was 100 % of control, the T/C [9] was 104 % of control and the T/C [10] was 99 % of control.
For `CC1(C)CC2(CC3(C1)SCCS3)OCCO2`, the T/C [11] was 98 % of control, the T/C [12] was 99 % of control and the T/C (dose: 400.0 mg/kg/injection, schedule: Q04DX003 (ip), vehicle: saline with Tween-80) was 97 % of control.
`NCC(=O)NCC(=O)NC(CCC(=O)O)C(=O)O` (stereo not drawn) (H-Gly-Gly-[ξE]-OH) was tested, and the T/C [1] was 100 % of control, the T/C [2] was 101 % of control and the T/C (dose: 200.0 mg/kg/injection, schedule: Q01DX005 (ip), vehicle: saline) was 104 % of control.
With `CC/C(=N/NS(=O)(=O)c1ccc(C)cc1)c1ccc(C(C)(C)C)cc1` the T/C (dose: 50.0 mg/kg/injection, schedule: Q01DX009 (ip), vehicle: saline) was 99 % of control and 96 % of control, the T/C (dose: 100.0 mg/kg/injection, schedule: Q01DX009 (ip), vehicle: saline) was 102 % of control and the T/C (dose: 200.0 mg/kg/injection, schedule: Q01DX009 (ip), vehicle: saline) was 102 % of control and 87 % of control.
For `C[C@]12CC[C@@H]3c4cc(N)c(O)cc4CC[C@H]3[C@@H]1CC[C@@H]2O`, the T/C [8] was 100 % of control, the T/C [9] was 103 % of control and the T/C [10] was 100 % of control.
`CC1C(=O)N(C)C(=O)N(C2CCCCC2)C1=O` (configuration not stated) was tested, and the T/C (dose: 60.0 mg/kg/injection, schedule: Q01DX005 (ip), vehicle: saline with Tween-80) was 104 % of control, the T/C (dose: 120.0 mg/kg/injection, schedule: Q01DX005 (ip), vehicle: saline with Tween-80) was 104 % of control and the T/C (dose: 240.0 mg/kg/injection, schedule: Q01DX005 (ip), vehicle: saline with Tween-80) was 101 % of control.
With `COC(=O)Nc1nc2c(OC)c(OC)c(OC)cc2[nH]1` the T/C (dose: 12.5 mg/kg/injection, schedule: Q01DX005 (ip), vehicle: other) was 97 % of control, the T/C (dose: 25.0 mg/kg/injection, schedule: Q01DX005 (ip), vehicle: other) was 100 % of control and the T/C (dose: 50.0 mg/kg/injection, schedule: Q01DX005 (ip), vehicle: other) was 100 % of control. For the same compound, the T/C (dose: 100.0 mg/kg/injection, schedule: Q01DX005 (ip), vehicle: other) was 102 % of control.
`O=[N+]([O-])c1ccccc1OCC(O)CCl` (configuration not stated) was tested, and the T/C [6] was 102 % of control and the T/C [7] was 99 % of control.
`CC1=C(/C=C/C(C)=C/C=C/C(C)=C/C(=O)O)C(C)(C)CCC1` was tested, and the T/C (dose: 32.0 mg/kg/injection, schedule: Q01DX005 (ip), vehicle: saline with Tween-80) was 119 % of control, the T/C (dose: 64.0 mg/kg/injection, schedule: Q01DX005 (ip), vehicle: saline with Tween-80) was 111 % of control and the T/C [11] was 105 % of control. For the same compound, the T/C (dose: 128.0 mg/kg/injection, schedule: Q01DX005 (ip), vehicle: saline with Tween-80) was 103 % of control and the T/C [12] was 115 % of control.
With `CCCCc1c(O)c(N=NC(=O)C[N+](C)(C)C)c2ccccc2c1O` the T/C [8] was 104 % of control, the T/C [9] was 110 % of control and the T/C [10] was 108 % of control.
In the case of `CC(=O)Oc1c(C)c2c(O)c3c1C1=C(OCOC1=C(C)C3=O)C(C)=CC(C)(O)C(O)C(C)C(O)C1C(=O)OC(C(C)/C=C\C=C(C)C(=O)N2)C(C)C1O` (configuration not stated), the T/C [3] is reported as 108 % of control, the T/C (dose: 50.0 mg/kg/injection, schedule: Q01DX009 (ip), vehicle: Klucel (hydroxypropylcellulose) (HPC)) is reported as 99 % of control and the T/C [4] is reported as 108 % of control. The T/C (dose: 100.0 mg/kg/injection, schedule: Q01DX009 (ip), vehicle: Klucel (hydroxypropylcellulose) (HPC)) was 100 % of control, the T/C [5] was 108 % of control and the T/C (dose: 200.0 mg/kg/injection, schedule: Q01DX009 (ip), vehicle: Klucel (hydroxypropylcellulose) (HPC)) was 104 % of control. The T/C (dose: 400.0 mg/kg/injection, schedule: Q01DX009 (ip), vehicle: Klucel (hydroxypropylcellulose) (HPC)) was 103 % of control.
`CC1CN1P(=O)(OCCC#N)N1CC1C` (configuration not stated) was tested, and the T/C (dose: 25.0 mg/kg/injection, schedule: Q01DX009 (ip), vehicle: other) was 104 % of control, the T/C (dose: 44.0 mg/kg/injection, schedule: Q04DX003 (ip), vehicle: other) was 118 % of control and the T/C (dose: 50.0 mg/kg/injection, schedule: Q01DX009 (ip), vehicle: other) was 110 % of control. The T/C (dose: 66.0 mg/kg/injection, schedule: Q04DX003 (ip), vehicle: other) was 118 % of control, the T/C (dose: 100.0 mg/kg/injection, schedule: Q01DX009 (ip), vehicle: other) was 165 % of control and 177 % of control and the T/C (dose: 150.0 mg/kg/injection, schedule: Q04DX003 (ip), vehicle: other) was 163 % of control.
In the case of `O=c1[nH]c2c(ccc3ccc[n+]([O-])c32)c2c1CCC2`, the T/C (dose: 100.0 mg/kg/injection, schedule: Q04DX002 (ip), vehicle: saline) is reported as 100 % of control, the T/C (dose: 200.0 mg/kg/injection, schedule: Q04DX002 (ip), vehicle: saline) is reported as 90 % of control and the T/C (dose: 400.0 mg/kg/injection, schedule: Q04DX002 (ip), vehicle: saline) is reported as 100 % of control.
In the case of `CCOC(CCC1=NC(C)(C)CC(C)O1)OCC` (configuration not stated), the T/C (dose: 100.0 mg/kg/injection, schedule: Q01DX001 (ip), vehicle: saline sonified) is reported as 110 % of control, the T/C (dose: 200.0 mg/kg/injection, schedule: Q01DX001 (ip), vehicle: saline sonified) is reported as 100 % of control and the T/C (dose: 400.0 mg/kg/injection, schedule: Q01DX001 (ip), vehicle: saline sonified) is reported as 90 % of control.
With `COc1ccc(/C(C)=N/[O-])cc1CS[n+]1ccccc1` the T/C (dose: 50.0 mg/kg/injection, schedule: Q01DX005 (ip), vehicle: distilled water + Tween-80 + alcohol) was 104 % of control, the T/C (dose: 100.0 mg/kg/injection, schedule: Q01DX005 (ip), vehicle: distilled water + Tween-80 + alcohol) was 95 % of control and the T/C (dose: 200.0 mg/kg/injection, schedule: Q01DX005 (ip), vehicle: distilled water + Tween-80 + alcohol) was 104 % of control.
